Source: ChEMBL document CHEMBL4038320 (J Med Chem, 2017)
pIC50: −log10 of the molar value.

Key:
[1] = target: Rho-associated protein kinase 2 (Homo sapiens, UniProt O75116); assay: Inhibition of recombinant human N-terminal GST-tagged ROCK2 catalytic domain (1 to 553 residues) expressed in baculovirus expression system using STK 2-biotin as substrate measured after 60 mins by HTRF/TR-FRET assay
[2] = target: Protein kinase C alpha type (Homo sapiens, UniProt P17252); assay: Inhibition of human PKCalpha active using MBP as substrate after 60 mins in presence of [gamma-32]ATP by scintillation counting
[3] = target: CYP3A4 (Homo sapiens, UniProt P08684); assay: Inhibition of CYP3A4 (unknown origin) at 10 uM; type: ADME
Sequence of CYP3A4 (P08684 whole entry): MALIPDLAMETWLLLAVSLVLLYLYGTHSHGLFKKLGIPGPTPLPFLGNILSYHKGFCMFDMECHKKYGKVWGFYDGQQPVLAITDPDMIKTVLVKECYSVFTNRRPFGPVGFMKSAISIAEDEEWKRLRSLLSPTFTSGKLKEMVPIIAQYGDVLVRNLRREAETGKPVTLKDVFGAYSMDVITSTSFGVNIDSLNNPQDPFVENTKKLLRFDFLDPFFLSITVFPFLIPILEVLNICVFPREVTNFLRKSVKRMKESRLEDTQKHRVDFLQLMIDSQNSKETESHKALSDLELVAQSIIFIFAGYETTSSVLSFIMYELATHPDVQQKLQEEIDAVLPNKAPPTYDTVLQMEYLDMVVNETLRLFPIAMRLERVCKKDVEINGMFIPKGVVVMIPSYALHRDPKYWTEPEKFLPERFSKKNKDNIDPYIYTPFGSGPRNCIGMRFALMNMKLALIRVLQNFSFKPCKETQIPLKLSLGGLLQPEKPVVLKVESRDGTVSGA

Sequence of Rho-associated protein kinase 2 (O75116 whole entry, the tested form may be a part): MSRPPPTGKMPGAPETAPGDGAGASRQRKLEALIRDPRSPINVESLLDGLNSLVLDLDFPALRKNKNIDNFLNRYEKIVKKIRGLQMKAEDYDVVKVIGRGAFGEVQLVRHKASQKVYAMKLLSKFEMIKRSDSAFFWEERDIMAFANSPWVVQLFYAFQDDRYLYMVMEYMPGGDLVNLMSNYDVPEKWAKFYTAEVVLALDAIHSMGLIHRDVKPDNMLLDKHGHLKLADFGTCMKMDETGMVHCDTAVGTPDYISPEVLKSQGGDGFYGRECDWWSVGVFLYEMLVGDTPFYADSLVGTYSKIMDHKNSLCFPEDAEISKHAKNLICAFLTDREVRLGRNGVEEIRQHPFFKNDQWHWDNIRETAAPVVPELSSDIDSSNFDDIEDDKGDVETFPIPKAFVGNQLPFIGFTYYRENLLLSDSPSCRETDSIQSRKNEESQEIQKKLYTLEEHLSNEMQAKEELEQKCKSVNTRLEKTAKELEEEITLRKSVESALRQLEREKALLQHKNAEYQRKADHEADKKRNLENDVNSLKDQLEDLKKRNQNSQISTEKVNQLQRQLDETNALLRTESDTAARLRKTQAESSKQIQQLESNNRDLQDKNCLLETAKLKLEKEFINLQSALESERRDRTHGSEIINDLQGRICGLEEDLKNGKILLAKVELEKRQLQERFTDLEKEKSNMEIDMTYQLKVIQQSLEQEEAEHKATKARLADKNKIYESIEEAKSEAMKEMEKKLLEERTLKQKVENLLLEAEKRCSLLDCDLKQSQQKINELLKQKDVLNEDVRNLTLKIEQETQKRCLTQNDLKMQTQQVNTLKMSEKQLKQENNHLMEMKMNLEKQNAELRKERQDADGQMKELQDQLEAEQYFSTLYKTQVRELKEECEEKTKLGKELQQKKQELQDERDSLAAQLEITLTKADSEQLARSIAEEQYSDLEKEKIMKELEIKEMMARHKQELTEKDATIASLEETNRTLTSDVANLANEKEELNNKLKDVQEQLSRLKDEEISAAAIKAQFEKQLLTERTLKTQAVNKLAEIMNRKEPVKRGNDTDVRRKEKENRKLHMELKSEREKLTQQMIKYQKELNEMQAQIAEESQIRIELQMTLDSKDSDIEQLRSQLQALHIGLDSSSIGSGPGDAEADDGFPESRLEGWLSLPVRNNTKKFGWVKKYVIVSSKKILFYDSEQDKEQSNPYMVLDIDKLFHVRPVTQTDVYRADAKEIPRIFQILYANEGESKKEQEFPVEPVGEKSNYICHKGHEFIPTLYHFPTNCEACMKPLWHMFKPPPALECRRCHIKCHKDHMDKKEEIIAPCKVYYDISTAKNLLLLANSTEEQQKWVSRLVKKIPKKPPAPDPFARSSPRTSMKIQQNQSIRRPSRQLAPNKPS

pIC50 [1] | pIC50 [2] | inhibition at 10 µM [3] [%] | SMILES
7.51 | 6.17 | 94 | O=C(Nc1ccccc1)c1cccc(NCc2nc(-c3ccncc3)n[nH]2)c1
6.80 | – | 93 | O=C(NCc1ccccc1)c1cccc(NCc2c[nH]c(-c3ccncc3)n2)c1
6.77 | – | 87 | O=C(NCc1ccccc1)c1cccc(NCc2[nH]nc(-c3ccncc3)c2-c2ccccc2)c1
6.57 | – | 96 | Clc1ccc(CNc2nc(-c3ccncc3)n[nH]2)cc1
7.66 | < 5.00 | 92 | O=C(NCc1ccccc1)c1cccc(NCc2nc(-c3ccncc3)cs2)c1
7.00 | < 5.00 | 94 | O=C(NCCCc1ccccc1)c1cccc(NCc2nc(-c3ccncc3)n[nH]2)c1
6.49 | 5.12 | 79 | O=C(NCc1ccccc1C(F)(F)F)c1cccc(NCc2nnc(-c3ccncc3)n2CCO)c1
< 5.00 | < 5.00 | 47 | Cn1c(CNc2cccc(C(=O)NCc3c(F)cccc3F)c2)nnc1-c1ccnc(NCc2ccccc2)c1
5.59 | – | – | O=C(CNc1ccccc1Cl)N/N=C/c1ccncc1
7.74 | 5.77 | 90 | O=C(Cc1ccccc1)Nc1cc(NCc2nc(-c3ccncc3)n[nH]2)ccc1Cl
8.14 | 5.44 | 100 | O=C(NCc1ccccc1)c1cccc(NCc2nc(-c3ccncc3)c[nH]2)c1
6.80 | < 5.00 | 25 | NS(=O)(=O)c1cccc(NCc2nc(-c3ccncc3)n[nH]2)c1
6.20 | < 5.00 | 94 | c1ccc(NCc2nc(-c3ccncc3)n[nH]2)cc1
6.14 | < 5.00 | 92 | COc1cccc(NCc2nc(-c3ccncc3)n[nH]2)c1
7.28 | < 5.00 | 100 | O=C(NCc1ccccc1)c1cccc(NCc2cc(-c3ccncc3)c[nH]2)c1
< 5.00 | – | 56 | CC(=O)Nc1cc(-c2nnc(CNc3cccc(C(=O)NCc4ccccc4C(F)(F)F)c3)n2C)ccn1
5.72 | – | 97 | Clc1ccc(CSc2nc(-c3ccncc3)n[nH]2)cc1
6.89 | 5.08 | 92 | O=C(NCc1ccccc1)c1cccc(NCc2cc(-c3ccncc3)no2)c1
5.96 | – | 86 | O=S(=O)(Cc1ccccc1)c1cccc(NCc2nc(-c3ccncc3)n[nH]2)c1
5.80 | 5.06 | 54 | Cn1c(CNc2cccc(C(=O)NCc3ccccc3Cl)c2)nnc1-c1ccncc1
6.27 | – | – | O=C(CNc1ccc(Cl)cc1)N/N=C/c1ccncc1
6.85 | 5.92 | 81 | CCCn1c(CNc2cccc(C(=O)NCc3ccccc3C(F)(F)F)c2)nnc1-c1ccncn1
6.49 | < 5.00 | 43 | O=C(NCc1ccccc1)c1cccc(NCc2nnc(-c3ccncc3)o2)c1
5.29 | – | 74 | c1ccc(CNCc2nc(-c3ccncc3)n[nH]2)cc1
5.21 | < 5.00 | – | O=C(CNc1cccc(Oc2ccccc2)c1)N/N=C1\CCCc2cnccc21

pIC50 [1] | pIC50 [2] | inhibition at 10 µM [3] [%] | SMILES
5.74 | < 5.00 | 93 | COc1ccccc1NCc1nc(-c2ccncc2)n[nH]1
7.57 | 5.15 | 91 | COc1ccc(CNC(=O)c2cccc(NCc3nnc(-c4ccncc4)[nH]3)c2)cc1
6.46 | < 5.00 | 86 | O=C(NCc1ccccc1)c1cccc(NCc2nc(-c3ccncc3)no2)c1
6.55 | < 5.00 | 95 | COc1ccc(NCc2nc(-c3ccncc3)n[nH]2)cc1
5.85 | < 5.00 | 97 | c1ccc(COc2cccc(NCc3nc(-c4ccncc4)n[nH]3)c2)cc1
< 5.00 | – | 100 | OCCc1cnccc1-c1n[nH]c(CNc2ccc(Cl)cc2)n1
7.22 | 5.14 | 99 | O=C(NCc1ccccc1)c1cccc(NCc2cc(-c3ccncc3)n[nH]2)c1
5.64 | – | 63 | NC(=O)OCc1cnccc1-c1n[nH]c(CNc2cccc(C(=O)NCc3ccccc3)c2)n1
< 5.00 | < 5.00 | 100 | c1ccc(Oc2cccc(NCc3nc(-c4ccncc4)n[nH]3)c2)cc1
6.44 | < 5.00 | 20 | NS(=O)(=O)c1ccc(NCc2nc(-c3ccncc3)n[nH]2)cc1
5.74 | – | – | O=C(CNc1ccccc1)N/N=C1\CCCc2cnccc21
< 5.00 | – | 27 | O=C(Nc1nc(-c2ccncc2)n[nH]1)c1ccc(Cl)cc1
6.41 | < 5.00 | – | COc1cccc(NCC(=O)N/N=C2\CCCc3cnccc32)c1
5.72 | < 5.00 | 24 | Cn1c(CNc2cccc(C(=O)NCc3c(F)cccc3F)c2)nnc1-c1ccncn1
< 5.00 | 5.60 | 64 | Cn1c(CNc2cccc(C(=O)NCc3c(F)cccc3F)c2)nnc1-c1ccnc(NCCCc2ccccc2)c1
7.07 | 5.48 | 95 | COc1ccccc1CNC(=O)c1cccc(NCc2nnc(-c3ccncc3)[nH]2)c1
6.42 | < 5.00 | 93 | Clc1cccc(NCc2nc(-c3ccncc3)n[nH]2)c1
7.21 | – | – | COc1cccc(NCC(=O)N/N=C/c2ccncc2)c1
6.52 | – | – | O=C(CNc1cccc(Cl)c1)N/N=C/c1ccncc1
5.43 | – | – | COc1ccc(NCC(=O)N/N=C/c2ccncc2)cc1
7.33 | < 5.00 | 95 | O=C(NCCc1ccccc1)c1cccc(NCc2nc(-c3ccncc3)n[nH]2)c1
5.57 | < 5.00 | 96 | c1ccc(CCOc2cccc(NCc3nc(-c4ccncc4)n[nH]3)c2)cc1
5.77 | – | 86 | Clc1cccc(OCc2n[nH]c(-c3ccncc3)n2)c1
6.23 | – | 100 | Clc1ccc(SCc2nc(-c3ccncc3)n[nH]2)cc1
7.30 | 5.96 | 97 | O=C(NCc1ccccc1Cl)c1cccc(NCc2nnc(-c3ccncc3)[nH]2)c1

pIC50 [1] | pIC50 [2] | inhibition at 10 µM [3] [%] | SMILES
6.59 | 5.32 | 50 | CC(C)n1c(CNc2cccc(C(=O)NCc3ccccc3)c2)nnc1-c1ccncc1
7.52 | 5.57 | 92 | O=C(NCc1ccccc1)Nc1cccc(NCc2nc(-c3ccncc3)n[nH]2)c1
6.92 | < 5.00 | 87 | O=C(NCc1ccccc1)c1cccc(NCc2csc(-c3ccncc3)n2)c1
7.03 | < 5.00 | 88 | Cc1cnccc1-c1n[nH]c(CNc2cccc(C(=O)NCc3ccccc3)c2)n1
6.49 | 5.13 | 57 | COCCn1c(CNc2cccc(C(=O)NCc3ccccc3)c2)nnc1-c1ccncc1
7.01 | – | 83 | O=S(=O)(NCc1ccccc1)c1cccc(NCc2nc(-c3ccncc3)n[nH]2)c1
6.19 | – | – | O=C(CNc1ccccc1)N/N=C/c1ccncc1
5.77 | < 5.00 | 100 | Clc1ccccc1NCc1nc(-c2ccncc2)n[nH]1
5.49 | – | 87 | O=C(NCc1ccccc1)c1cccc(NCc2nnc(-c3ccncc3)n2Cc2ccccc2)c1
6.72 | – | 49 | O=C(NCc1c(F)cccc1F)c1cccc(NCc2nnc3n2CCOc2cnccc2-3)c1
7.03 | < 5.00 | 97 | Clc1ccc(NCc2nc(-c3ccncc3)n[nH]2)cc1
7.24 | < 5.00 | – | O=C(CNc1cccc(C(=O)NCc2ccccc2)c1)N/N=C1\CCCc2cnccc21
5.66 | < 5.00 | 79 | CN(Cc1ccccc1)C(=O)c1cccc(NCc2nc(-c3ccncc3)n[nH]2)c1
5.13 | – | 29 | CNc1cc(-c2nnc(CNc3cccc(C(=O)NCc4c(F)cccc4F)c3)n2C)ccn1
5.92 | < 5.00 | 100 | c1ccc(CSc2cccc(NCc3nc(-c4ccncc4)n[nH]3)c2)cc1
6.27 | < 5.00 | 100 | O=C(NCc1ccccc1)c1cccc(NCc2nc(-c3ccncc3CO)n[nH]2)c1
< 5.00 | – | – | O=C(CNc1cccc(C(=O)N2CCOCC2)c1)N/N=C1\CCCc2cnccc21
5.15 | < 5.00 | 47 | Cc1cc(-c2n[nH]c(CNc3ccc(Cl)cc3)n2)ccn1
< 5.00 | – | 69 | Cn1c(CNc2cccc(C(=O)NCc3c(F)cccc3F)c2)nnc1-c1ccnc(NCCc2ccccc2)c1
6.47 | – | 95 | O=C(NCc1ccccc1)c1cccc(NCc2ccn(-c3ccncc3)c2)c1
7.15 | – | 77 | CC(=O)Nc1cccc(NCc2nc(-c3ccncc3)n[nH]2)c1
6.05 | – | 93 | Clc1ccc(NCCc2nc(-c3ccncc3)n[nH]2)cc1
5.13 | – | – | COc1ccccc1NCC(=O)N/N=C/c1ccncc1
< 5.00 | < 5.00 | – | O=C(CNc1cccc(OCc2ccccc2)c1)N/N=C1\CCCc2cnccc21
5.24 | < 5.00 | – | CCOc1cccc(NCC(=O)N/N=C2\CCCc3cnccc32)c1
